Assay [1] deals with T1, mouse Siglec-2-Fc-Avi (CD22) (Mus musculus, UniProt P35329).
T1 construct: made in house
T1 sequence (P35329 22-708 limits assumed): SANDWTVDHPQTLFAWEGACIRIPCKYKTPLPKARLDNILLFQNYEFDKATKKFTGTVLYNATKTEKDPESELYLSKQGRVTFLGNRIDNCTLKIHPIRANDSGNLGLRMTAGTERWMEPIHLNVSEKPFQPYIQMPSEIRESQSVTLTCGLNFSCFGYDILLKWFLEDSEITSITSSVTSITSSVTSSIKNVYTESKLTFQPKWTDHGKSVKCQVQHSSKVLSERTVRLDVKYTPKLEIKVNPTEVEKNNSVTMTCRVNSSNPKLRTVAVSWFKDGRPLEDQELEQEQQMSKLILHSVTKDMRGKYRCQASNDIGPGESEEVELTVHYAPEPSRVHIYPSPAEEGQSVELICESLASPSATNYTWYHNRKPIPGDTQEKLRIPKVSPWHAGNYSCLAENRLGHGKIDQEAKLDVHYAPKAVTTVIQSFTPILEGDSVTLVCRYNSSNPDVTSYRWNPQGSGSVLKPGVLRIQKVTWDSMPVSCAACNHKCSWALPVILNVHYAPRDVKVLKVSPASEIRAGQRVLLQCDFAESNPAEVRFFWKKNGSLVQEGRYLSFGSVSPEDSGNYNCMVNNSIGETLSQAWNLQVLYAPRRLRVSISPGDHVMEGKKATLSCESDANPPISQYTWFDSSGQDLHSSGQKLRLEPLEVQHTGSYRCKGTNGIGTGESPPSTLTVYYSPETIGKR
Kind of assay: SPR binding affinity to mouse CD22. Conditions: steady-state analysis. The method, then:
(§1) Prior to immobilization, CD22 proteins were treated with SialoExo (Genovis, Cat #G1-SM1-020) for 4 hours at 37° C. to remove native sialic acid residues.
(§2) Capture of biotinylated CD22 constructs was performed using a Cytiva SA chip (BR100398) on a Biacore 8K instrument.
(§3) Binding experiments of Siglec-ligand conjugated proteins or Siglec ligand compounds were performed on the surfaces prepared above in 10 mM HEPES, 150 mM NaCl, 0.05% Tween-20, pH 7.5, 1% DMSO as the running buffer. […] The compounds were then allowed to dissociate from the surface for 120 seconds. […] Solvent correction was performed using 0.5, 1, 1.5, and 2% DMSO spike into running buffer without DMSO. […] Data was analyzed using steady-state analysis in Biacore Insight Evaluation Software, version 3.0 for Siglec ligand compounds.

Assay [2] has as its target T2, human Siglec-2/CD22 protein (Homo sapiens, UniProt P20273).
T2 construct: purchased Acro Biosystems SI2-H82E3
T2 sequence (P20273 20-847): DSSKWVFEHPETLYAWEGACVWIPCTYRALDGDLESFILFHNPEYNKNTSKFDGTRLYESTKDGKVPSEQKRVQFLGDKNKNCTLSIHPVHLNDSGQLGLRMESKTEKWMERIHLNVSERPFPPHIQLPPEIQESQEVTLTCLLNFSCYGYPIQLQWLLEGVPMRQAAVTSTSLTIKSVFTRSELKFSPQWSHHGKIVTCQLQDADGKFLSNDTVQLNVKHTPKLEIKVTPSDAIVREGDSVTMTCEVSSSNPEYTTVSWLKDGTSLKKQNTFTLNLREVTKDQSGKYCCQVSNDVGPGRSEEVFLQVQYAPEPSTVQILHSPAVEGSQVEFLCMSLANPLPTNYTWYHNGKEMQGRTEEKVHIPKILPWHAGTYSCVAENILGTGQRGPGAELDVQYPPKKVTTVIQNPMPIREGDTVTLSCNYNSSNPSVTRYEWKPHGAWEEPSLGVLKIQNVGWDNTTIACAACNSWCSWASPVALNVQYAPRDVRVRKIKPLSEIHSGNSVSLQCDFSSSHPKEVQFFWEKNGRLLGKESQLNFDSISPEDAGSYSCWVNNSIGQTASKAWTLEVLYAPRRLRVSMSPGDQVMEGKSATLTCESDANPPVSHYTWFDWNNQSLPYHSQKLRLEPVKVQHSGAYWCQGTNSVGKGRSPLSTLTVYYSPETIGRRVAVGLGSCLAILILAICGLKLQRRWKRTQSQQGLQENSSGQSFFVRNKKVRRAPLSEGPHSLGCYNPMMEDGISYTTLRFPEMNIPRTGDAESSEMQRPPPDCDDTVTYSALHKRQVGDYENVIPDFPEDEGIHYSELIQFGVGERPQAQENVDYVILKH
Kind of assay: SPR binding affinity to human CD22. Conditions: steady-state analysis. The method, then: as §1, §2, §3

The structures appear in SMILES notation.

As a reminder, the Kd is the concentration at which binding is half-saturated. For the compound `C#CCOCCOCCNc1c(NCCCCCCO[C@]2(C(=O)O)C[C@H](O)[C@@H](NC(=O)CO)[C@H]([C@H](O)[C@H](O)CNC(=O)c3ccccc3Cl)O2)c(=O)c1=O` [Compound 229, (2R,4S,5R,6R)-6-((1R,2R)-3-(2-chlorobenzamido)-1,2-dihydroxypropyl)-2-((6-((3,4-dioxo-2-((2-(2-(prop-2-yn-1-yloxy)ethoxy)ethyl)amino)cyclobut-1-en-1-yl)amino)hexyl)oxy)-4-hydroxy-5-(2-hydroxyacetamido)tetrahydro-2H-pyran-2-carboxylic acid], the Kd in assay [1] and in assay [2] was 1 to 10 µM in each case.

Turning to `C#CCOCCOCCNc1c(NCCCCCCO[C@]2(C(=O)O)C[C@H](O)[C@@H](NC(=O)CO)[C@H]([C@H](O)[C@H](O)CNC(=O)c3ccccc3)O2)c(=O)c1=O` [Compound 230, (2R,4S,5R,6R)-6-((1R,2R)-3-benzamido-1,2-dihydroxypropyl)-2-((6-((3,4-dioxo-2-((2-(2-(prop-2-yn-1-yloxy)ethoxy)ethyl)amino)cyclobut-1-en-1-yl)amino)hexyl)oxy)-4-hydroxy-5-(2-hydroxyacetamido)tetrahydro-2H-pyran-2-carboxylic acid], the Kd in assay [1] and in assay [2] was 1 to 10 µM throughout.

Turning to `CC(=O)NCCOCCOCCOCCOCCNc1c(NCCCCCCO[C@]2(C(=O)O)C[C@H](O)[C@@H](NC(C)=O)[C@H]([C@H](O)[C@H](O)CNC(=O)Cc3ccc(Cl)cc3)O2)c(=O)c1=O` [Compound 248, (2R,4S,5R,6R)-5-acetamido-6-((1R,2R)-3-(2-(4-chlorophenyl)acetamido)-1,2-dihydroxypropyl)-2-((6-((3,4-dioxo-2-((2-oxo-6,9,12,15-tetraoxa-3-azaheptadecan-17-yl)amino)cyclobut-1-en-1-yl)amino)hexyl)oxy)-4-hydroxytetrahydro-2H-pyran-2-carboxylic acid], the equilibrium dissociation constant (Kd) in assay [1] was 1 to 10 µM; in assay [2] it was less than 1 µM.

As to `CC(=O)NCCOCCOCCOCCOCCC(=O)NCCCCCO[C@]1(C(=O)O)C[C@H](O)[C@@H](NC(C)=O)[C@H]([C@H](O)[C@H](O)CNC(=O)Cc2ccc(Cl)cc2)O1` [Compound 249, (2R,4S,5R,6R)-5-acetamido-6-((1R,2R)-3-(2-(4-chlorophenyl)acetamido)-1,2-dihydroxypropyl)-2-((2,18-dioxo-6,9,12,15-tetraoxa-3,19-diazatetracosan-24-yl)oxy)-4-hydroxytetrahydro-2H-pyran-2-carboxylic acid], the Kd in assay [1] and in assay [2] was 1 to 10 µM each time.

As for `CC(=O)NCCOCCOCCOCCOCc1cn(CCCCCCO[C@]2(C(=O)O)C[C@H](O)[C@@H](NC(C)=O)[C@H]([C@H](O)[C@H](O)CNC(=O)Cc3ccc(Cl)cc3)O2)nn1` [Compound 250, (2R,4S,5R,6R)-5-acetamido-6-((1R,2R)-3-(2-(4-chlorophenyl)acetamido)-1,2-dihydroxypropyl)-4-hydroxy-2-((6-(4-(15-oxo-2,5,8,11-tetraoxa-14-azahexadecyl)-1H-1,2,3-triazol-1-yl)hexyl)oxy) tetrahydro-2H-pyran-2-carboxylic acid], the Kd in assay [1] was 1 to 10 µM; in assay [2] it was less than 1 µM.

Regarding `C#CCOCCCCCCS[C@]1(C(=O)O)C[C@H](O)[C@@H](NC(=O)CO)[C@H]([C@H](O)[C@H](O)CNC(=O)c2ccc(Cl)cc2)O1` [Compound 251, (2S,4S,5R,6R)-6-((1R,2R)-3-(4-chlorobenzamido)-1,2-dihydroxypropyl)-4-hydroxy-5-(2-hydroxyacetamido)-2-((6-(prop-2-yn-1-yloxy)hexyl)thio) tetrahydro-2H-pyran-2-carboxylic acid], the Kd in assay [1] and in assay [2] was 1 to 10 µM in each case.

Consider `C#CCOCCOCCNc1c(NCCCCCCO[C@]2(C(=O)O)C[C@H](O)[C@@H](NC(=O)CO)[C@H]([C@H](O)[C@H](O)CNC(=O)c3ccc(Cl)cc3)O2)c(=O)c1=O` [Compound 254, (2R,4S,5R,6R)-6-((1R,2R)-3-(4-chlorobenzamido)-1,2-dihydroxypropyl)-2-((6-((3,4-dioxo-2-((2-(2-(prop-2-yn-1-yloxy)ethoxy)ethyl)amino)cyclobut-1-en-1-yl)amino)hexyl)oxy)-4-hydroxy-5-(2-hydroxyacetamido) tetrahydro-2H-pyran-2-carboxylic acid], for which the Kd in assay [1] is 1 to 10 µM; in assay [2], less than 1 µM.

`C#CCOCCCCCCS[C@]1(C(=O)O)C[C@H](O)[C@@H](NC(=O)CO)[C@H]([C@H](O)[C@H](O)CNC(=O)c2cccc(Oc3ccccc3)c2)O1` [Compound 255, (2S,4S,5R,6R)-6-((1R,2R)-1,2-dihydroxy-3-(3-phenoxybenzamido)propyl)-4-hydroxy-5-(2-hydroxyacetamido)-2-((6-(prop-2-yn-1-yloxy)hexyl)thio) tetrahydro-2H-pyran-2-carboxylic acid]: the figures for the Kd in assay [1] and in assay [2] were 1 to 10 µM and less than 1 µM, respectively.

In the case of `CC(=O)NCCOCCOCCOCCOCCn1cc(COCCCCCCO[C@]2(C(=O)O)C[C@H](O)[C@@H](NC(=O)CO)[C@H]([C@H](O)[C@H](O)CNC(=O)Cc3ccc(C(F)F)cc3)O2)nn1` [Compound 261, (2R,4S,5R,6R)-6-((1R,2R)-3-(2-(4-(difluoromethyl)phenyl)acetamido)-1,2-dihydroxypropyl)-4-hydroxy-5-(2-hydroxyacetamido)-2-((6-((1-(2-oxo-6,9,12,15-tetraoxa-3-azaheptadecan-17-yl)-1H-1,2,3-triazol-4-yl)methoxy)hexyl)oxy)tetrahydro-2H-pyran-2-carboxylic acid], the Kd in assay [1] and in assay [2] was less than 1 µM in each case.

As to `CC(=O)NCCOCCOCCOCCOCCn1cc(COCCCCCCO[C@]2(C(=O)O)C[C@H](O)[C@@H](NC(=O)CO)[C@H]([C@H](O)[C@H](O)CNC(=O)Cc3ccc(Cl)cc3)O2)nn1` [Compound 262, (2R,4S,5R,6R)-6-((1R,2R)-3-(2-(4-chlorophenyl)acetamido)-1,2-dihydroxypropyl)-4-hydroxy-5-(2-hydroxyacetamido)-2-((6-((1-(2-oxo-6,9,12,15-tetraoxa-3-azaheptadecan-17-yl)-1H-1,2,3-triazol-4-yl)methoxy)hexyl)oxy)tetrahydro-2H-pyran-2-carboxylic acid], the Kd in assay [1] was 1 to 10 µM; in assay [2] it was less than 1 µM.

As for `CC(=O)NCCOCCOCCOCCOCCn1cc(CCCCCCO[C@]2(C(=O)O)C[C@H](O)[C@@H](NC(=O)CO)[C@H]([C@H](O)[C@H](O)CNC(=O)Cc3ccc(Cl)cc3)O2)nn1` [Compound 263, (2R,4S,5R,6R)-6-((1R,2R)-3-(2-(4-chlorophenyl)acetamido)-1,2-dihydroxypropyl)-4-hydroxy-5-(2-hydroxyacetamido)-2-((6-(1-(2-oxo-6,9,12,15-tetraoxa-3-azaheptadecan-17-yl)-1H-1,2,3-triazol-4-yl)hexyl)oxy)tetrahydro-2H-pyran-2-carboxylic acid], the figures for the Kd in assay [1] and in assay [2] were 1 to 10 µM and less than 1 µM, respectively.

Turning to `CC(=O)NCCOCCOCCOCCOCCOC(=O)NCCCCCCO[C@]1(C(=O)O)C[C@H](O)[C@@H](NC(C)=O)[C@H]([C@H](O)[C@H](O)CNC(=O)c2cccc(Cl)c2)O1` [Compound 268, (2R,4S,5R,6R)-5-acetamido-6-((1R,2R)-3-(3-chlorobenzamido)-1,2-dihydroxypropyl)-2-((2,19-dioxo-6,9,12,15,18-pentaoxa-3,20-diazahexacosan-26-yl)oxy)-4-hydroxytetrahydro-2H-pyran-2-carboxylic acid], the Kd in assay [1] was greater than 10 µM; in assay [2] it was 1 to 10 µM.
